Here are results for one compound from ChEMBL document CHEMBL4321837, “Discovery of Potent and Orally Effective Dual Janus Kinase 2/FLT3 Inhibitors for the Treatment of Acute Myelogenous Leukemia and Myeloproliferative Neoplasms” (J Med Chem, 2019).

Data set [1] concerns MV4-11. Kind of data set: Induction of apoptosis in human MV4-11 cells assessed as late apoptotic cells at 1.6 uM after 24 hrs by Annexin V FITC/PI staining based flow cytometry analysis (reference value: 1.38%). It is filed as functional.
A short description of data set [2]: Intrinsic clearance in monkey liver microsomes. It is filed as ADME, Macaca mulatta, Microsome. As to conditions: rhesus monkey.
Data set [3] in a line: Half life in rat liver microsomes. It is filed as ADME, Microsome.
Data set [4] deals with MV4-11. Kind of data set: Induction of cell cycle arrest in human MV4-11 cells assessed as accumulation at G0/G1 phase at 0.01 uM after 24 hrs by propidium iodide staining based flow cytometry analysis (reference value: 54.49%). It is filed as functional.
Data set [5] deals with L02. Kind of data set: Cytotoxicity against human LO2 cells assessed as cell viability after 72 hrs by MTT assay. It is filed as cell-based. As to conditions: l02, 72 h.
In data set [6] the test system is MV4-11. Kind of data set: Induction of apoptosis in human MV4-11 cells after 24 hrs by Annexin V FITC/PI staining based flow cytometry analysis. In kind it is functional, cell-based.
For data set [7], the system named is MV4-11. The experiment in a line: Induction of apoptosis in human MV4-11 cells assessed as necrotic cells at 0.8 uM after 24 hrs by Annexin V FITC/PI staining based flow cytometry analysis (reference value: 0.18%). In kind it is functional.
For data set [8], the target named is T1, Tyrosine-protein kinase JAK3 (Homo sapiens, UniProt P52333).
T1 sequence (P52333 whole entry): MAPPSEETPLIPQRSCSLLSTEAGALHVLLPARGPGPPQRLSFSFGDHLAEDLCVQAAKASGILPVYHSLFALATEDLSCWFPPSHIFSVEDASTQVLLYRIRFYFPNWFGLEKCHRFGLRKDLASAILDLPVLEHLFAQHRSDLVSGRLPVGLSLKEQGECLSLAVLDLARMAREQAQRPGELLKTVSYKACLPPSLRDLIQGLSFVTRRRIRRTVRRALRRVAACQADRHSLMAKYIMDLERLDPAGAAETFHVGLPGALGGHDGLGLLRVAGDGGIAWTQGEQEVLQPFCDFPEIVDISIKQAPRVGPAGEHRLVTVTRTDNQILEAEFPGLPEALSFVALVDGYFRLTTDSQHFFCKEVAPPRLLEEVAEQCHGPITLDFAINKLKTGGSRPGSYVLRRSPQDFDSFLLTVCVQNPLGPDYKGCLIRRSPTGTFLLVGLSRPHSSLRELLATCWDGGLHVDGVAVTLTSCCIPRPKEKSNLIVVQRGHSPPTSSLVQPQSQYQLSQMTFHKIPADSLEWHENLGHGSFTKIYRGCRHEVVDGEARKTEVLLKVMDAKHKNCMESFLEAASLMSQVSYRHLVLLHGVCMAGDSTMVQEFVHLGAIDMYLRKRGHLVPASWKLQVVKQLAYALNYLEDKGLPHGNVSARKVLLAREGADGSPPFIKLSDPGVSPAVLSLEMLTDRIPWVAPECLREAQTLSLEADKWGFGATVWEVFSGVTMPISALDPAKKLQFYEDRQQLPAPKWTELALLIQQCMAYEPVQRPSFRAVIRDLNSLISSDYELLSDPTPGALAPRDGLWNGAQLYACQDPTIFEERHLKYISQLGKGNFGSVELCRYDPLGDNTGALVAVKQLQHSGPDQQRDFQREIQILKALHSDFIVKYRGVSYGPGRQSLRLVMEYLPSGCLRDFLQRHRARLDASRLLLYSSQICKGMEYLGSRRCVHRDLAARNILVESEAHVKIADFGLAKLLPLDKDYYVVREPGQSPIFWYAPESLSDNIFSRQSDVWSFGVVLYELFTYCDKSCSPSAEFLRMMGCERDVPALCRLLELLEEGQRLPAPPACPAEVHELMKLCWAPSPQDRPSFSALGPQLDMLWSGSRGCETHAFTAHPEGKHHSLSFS
Kind of data set: Inhibition of human JAK3 (781 to end residues) using GGEEEEYFELVKK as substrate after 40 mins in presence of [gamma33P]-ATP by scintillation counting based radiometric assay.

Data set [9] in a line: Toxicity in NOD/SCID mouse xenografted with human SET2 cells overexpressing JAK2 V617F mutant assessed as body weight at 30 to 60 mg/kg, po qd for 18 days. It is filed as organism-based. As to conditions: in vivo, 432 h.
Data set [10] concerns MV4-11. The experiment in a line: Induction of apoptosis in human MV4-11 cells assessed as early apoptotic cells at 0.2 uM after 24 hrs by Annexin V FITC/PI staining based flow cytometry analysis (reference value: 2.14%). It is filed as functional.
Data set [11] relates to MV4-11. Kind of data set: Induction of cell cycle arrest in human MV4-11 cells assessed as accumulation at G2/M phase at 0.01 uM after 24 hrs by propidium iodide staining based flow cytometry analysis (reference value: 15.4%). In kind it is functional.
For data set [12], the system named is MV4-11. Kind of data set: Induction of cell cycle arrest in human MV4-11 cells assessed as accumulation at G0/G1 phase at 0.005 uM after 24 hrs by propidium iodide staining based flow cytometry analysis (reference value: 54.49%). In kind it is functional.
Data set [13] has as its system MV4-11. Kind of data set: Induction of apoptosis in human MV4-11 cells assessed as necrotic cells at 0.05 uM after 24 hrs by Annexin V FITC/PI staining based flow cytometry analysis (reference value: 0.18%). In kind it is functional.
Data set [14] addresses Vascular endothelial growth factor receptor 1 (Homo sapiens, UniProt P17948). Kind of data set: Inhibition of recombinant human FLT1 (783 to end residues) using KKKSPGEYVNIEF as substrate incubated for 40 mins in presence of [gamma33P]-ATP by scintillation counting based radiometry assay.
Data set [15] deals with JAK3/JAK1 (Homo sapiens, UniProt P23458+P52333). The experiment in a line: Inhibition of JAK1/JAK3 in human PBMC cells assessed as reduction in IL-2-induced STAT5 phosphorylation by flow cytometry. It is filed as cell-based.
Chain of JAK3/JAK1 (P23458 whole entry, one chain of several): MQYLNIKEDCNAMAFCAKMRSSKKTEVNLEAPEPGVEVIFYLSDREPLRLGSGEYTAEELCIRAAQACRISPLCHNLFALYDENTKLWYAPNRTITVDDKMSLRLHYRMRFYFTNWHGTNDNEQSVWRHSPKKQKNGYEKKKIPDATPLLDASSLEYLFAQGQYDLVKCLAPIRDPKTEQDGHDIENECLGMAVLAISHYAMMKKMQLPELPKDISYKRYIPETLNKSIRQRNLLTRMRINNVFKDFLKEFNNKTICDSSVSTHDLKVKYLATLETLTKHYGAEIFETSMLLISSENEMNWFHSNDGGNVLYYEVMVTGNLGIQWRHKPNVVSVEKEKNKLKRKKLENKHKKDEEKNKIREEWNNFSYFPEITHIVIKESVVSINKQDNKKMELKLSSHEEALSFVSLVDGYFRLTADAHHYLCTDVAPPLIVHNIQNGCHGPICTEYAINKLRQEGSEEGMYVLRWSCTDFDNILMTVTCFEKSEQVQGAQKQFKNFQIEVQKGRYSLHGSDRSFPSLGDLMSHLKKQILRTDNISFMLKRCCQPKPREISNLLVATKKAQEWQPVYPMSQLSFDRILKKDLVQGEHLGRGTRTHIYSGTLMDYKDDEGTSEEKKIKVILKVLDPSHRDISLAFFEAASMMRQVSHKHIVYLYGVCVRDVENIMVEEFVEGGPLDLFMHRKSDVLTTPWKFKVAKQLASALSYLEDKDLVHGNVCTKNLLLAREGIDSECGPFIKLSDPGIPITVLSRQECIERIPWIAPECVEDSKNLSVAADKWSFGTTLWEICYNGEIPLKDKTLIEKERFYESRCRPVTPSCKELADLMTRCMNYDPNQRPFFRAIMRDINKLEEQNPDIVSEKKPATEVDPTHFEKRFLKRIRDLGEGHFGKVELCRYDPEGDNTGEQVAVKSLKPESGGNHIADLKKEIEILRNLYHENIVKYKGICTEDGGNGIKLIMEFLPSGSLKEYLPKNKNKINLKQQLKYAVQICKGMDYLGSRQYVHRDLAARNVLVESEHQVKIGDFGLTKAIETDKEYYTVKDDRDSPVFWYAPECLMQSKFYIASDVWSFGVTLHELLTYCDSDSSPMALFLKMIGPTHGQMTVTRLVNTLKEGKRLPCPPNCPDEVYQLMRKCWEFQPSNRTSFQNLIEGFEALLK
Data set [16] has as its system MV4-11. Kind of data set: Induction of apoptosis in human MV4-11 cells assessed as necrotic cells at 0.2 uM after 24 hrs by Annexin V FITC/PI staining based flow cytometry analysis (reference value: 0.18%). In kind it is functional.
The subject of data set [17] is MOLM-13. Kind of data set: Antiproliferative activity against FLT3-ITD-positive human MOLM13 cells assessed as reduction in cell growth after 72 hrs by MTT assay. It is filed as functional, cell-based. As to conditions: MOLM-13, 72 h.
The target of data set [18] is CDK4/Cyclin D3 (Homo sapiens, UniProt P11802). Kind of data set: Inhibition of recombinant full length human CDK4/CyclinD3 using Rb fragment as substrate incubated for 30 mins in presence of [gamma33P]-ATP by scintillation counting based radiometry assay. It is filed as protein-complex assay.
Chain of CDK4/Cyclin D3 (P11802 whole entry, the tested form may be a part): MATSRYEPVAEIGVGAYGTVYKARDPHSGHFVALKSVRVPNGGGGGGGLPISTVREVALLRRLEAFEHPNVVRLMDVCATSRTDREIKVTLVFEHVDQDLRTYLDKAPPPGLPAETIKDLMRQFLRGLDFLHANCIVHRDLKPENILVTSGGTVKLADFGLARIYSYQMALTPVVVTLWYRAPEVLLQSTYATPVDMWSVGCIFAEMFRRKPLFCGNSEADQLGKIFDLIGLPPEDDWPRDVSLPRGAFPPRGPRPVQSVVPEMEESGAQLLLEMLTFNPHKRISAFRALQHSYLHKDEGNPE
Chain of CDK4/Cyclin D3 (P30281 whole entry, further chain, the tested form may be a part): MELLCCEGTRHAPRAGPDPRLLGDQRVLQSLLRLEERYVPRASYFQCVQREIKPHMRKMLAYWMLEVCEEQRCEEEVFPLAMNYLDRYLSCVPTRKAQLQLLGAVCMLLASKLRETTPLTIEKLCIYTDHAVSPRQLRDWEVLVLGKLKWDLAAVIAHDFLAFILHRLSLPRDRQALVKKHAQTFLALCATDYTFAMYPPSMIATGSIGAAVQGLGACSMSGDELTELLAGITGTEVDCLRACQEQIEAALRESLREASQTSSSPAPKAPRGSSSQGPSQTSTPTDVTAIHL
Data set [19] concerns MV4-11. Kind of data set: Induction of cell cycle arrest in human MV4-11 cells assessed as accumulation at S phase at 0.01 uM after 24 hrs by propidium iodide staining based flow cytometry analysis (reference value: 30.11%). It is filed as functional.
Data set [20] relates to MV4-11. Kind of data set: Induction of cell cycle arrest in human MV4-11 cells assessed as accumulation at S phase at 0.1 uM after 24 hrs by propidium iodide staining based flow cytometry analysis (reference value: 30.11%). It is filed as functional.
The nature of data set [21]: Half life in monkey liver microsomes. In kind it is ADME, Macaca mulatta, Microsome. As to conditions: rhesus monkey.
A short description of data set [22]: AUC (0 to t) in Sprague-Dawley rat at 5 mg/kg, po measured up to 24 hrs by LC/MS/MS analysis. Also noted: dose 5 mg/kg, time < 24 hr, route oral. As to conditions: in vivo, 24 h. In kind it is ADME, organism-based.
Data set [23] has as its target Tyrosine-protein kinase JAK2 (Homo sapiens, UniProt O60674). The experiment in a line: Inhibition of human JAK2 (808 to end residues) assessed as residual activity at 100 nM using KTFCGTPEYLAP as substrate after 40 mins in presence of [gamma33P]-ATP by scintillation counting based radiometric assay relative to control.

Chain of Tyrosine-protein kinase JAK2 (O60674 whole entry): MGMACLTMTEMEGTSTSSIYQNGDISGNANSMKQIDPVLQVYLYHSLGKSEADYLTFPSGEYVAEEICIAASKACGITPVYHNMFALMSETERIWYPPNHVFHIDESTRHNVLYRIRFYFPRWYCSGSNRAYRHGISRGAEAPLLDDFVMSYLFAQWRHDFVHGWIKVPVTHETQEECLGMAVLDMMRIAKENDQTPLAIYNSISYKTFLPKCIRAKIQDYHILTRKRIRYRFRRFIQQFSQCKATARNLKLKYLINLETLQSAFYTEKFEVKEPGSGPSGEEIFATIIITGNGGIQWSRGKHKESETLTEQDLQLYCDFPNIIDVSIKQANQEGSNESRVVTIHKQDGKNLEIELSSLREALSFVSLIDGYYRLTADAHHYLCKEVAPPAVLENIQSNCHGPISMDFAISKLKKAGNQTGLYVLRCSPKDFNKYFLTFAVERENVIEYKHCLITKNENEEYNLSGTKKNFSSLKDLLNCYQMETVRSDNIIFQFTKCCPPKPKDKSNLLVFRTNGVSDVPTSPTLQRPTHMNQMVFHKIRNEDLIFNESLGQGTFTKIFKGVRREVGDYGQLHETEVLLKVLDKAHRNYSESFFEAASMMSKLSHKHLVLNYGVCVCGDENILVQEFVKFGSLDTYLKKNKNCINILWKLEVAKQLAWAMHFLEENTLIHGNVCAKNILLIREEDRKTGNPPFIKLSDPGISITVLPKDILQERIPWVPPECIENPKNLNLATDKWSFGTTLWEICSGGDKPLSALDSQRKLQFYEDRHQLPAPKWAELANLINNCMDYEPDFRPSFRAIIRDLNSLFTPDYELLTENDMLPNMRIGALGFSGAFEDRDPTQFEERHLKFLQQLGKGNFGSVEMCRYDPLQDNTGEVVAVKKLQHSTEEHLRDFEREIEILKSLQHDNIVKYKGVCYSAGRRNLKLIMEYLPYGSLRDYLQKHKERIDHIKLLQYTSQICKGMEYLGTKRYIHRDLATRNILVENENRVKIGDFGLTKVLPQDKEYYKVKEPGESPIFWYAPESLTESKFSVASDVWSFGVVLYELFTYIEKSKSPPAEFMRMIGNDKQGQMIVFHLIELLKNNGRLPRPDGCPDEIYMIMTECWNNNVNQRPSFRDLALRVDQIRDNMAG
Chain of Vascular endothelial growth factor receptor 1 (P17948 whole entry): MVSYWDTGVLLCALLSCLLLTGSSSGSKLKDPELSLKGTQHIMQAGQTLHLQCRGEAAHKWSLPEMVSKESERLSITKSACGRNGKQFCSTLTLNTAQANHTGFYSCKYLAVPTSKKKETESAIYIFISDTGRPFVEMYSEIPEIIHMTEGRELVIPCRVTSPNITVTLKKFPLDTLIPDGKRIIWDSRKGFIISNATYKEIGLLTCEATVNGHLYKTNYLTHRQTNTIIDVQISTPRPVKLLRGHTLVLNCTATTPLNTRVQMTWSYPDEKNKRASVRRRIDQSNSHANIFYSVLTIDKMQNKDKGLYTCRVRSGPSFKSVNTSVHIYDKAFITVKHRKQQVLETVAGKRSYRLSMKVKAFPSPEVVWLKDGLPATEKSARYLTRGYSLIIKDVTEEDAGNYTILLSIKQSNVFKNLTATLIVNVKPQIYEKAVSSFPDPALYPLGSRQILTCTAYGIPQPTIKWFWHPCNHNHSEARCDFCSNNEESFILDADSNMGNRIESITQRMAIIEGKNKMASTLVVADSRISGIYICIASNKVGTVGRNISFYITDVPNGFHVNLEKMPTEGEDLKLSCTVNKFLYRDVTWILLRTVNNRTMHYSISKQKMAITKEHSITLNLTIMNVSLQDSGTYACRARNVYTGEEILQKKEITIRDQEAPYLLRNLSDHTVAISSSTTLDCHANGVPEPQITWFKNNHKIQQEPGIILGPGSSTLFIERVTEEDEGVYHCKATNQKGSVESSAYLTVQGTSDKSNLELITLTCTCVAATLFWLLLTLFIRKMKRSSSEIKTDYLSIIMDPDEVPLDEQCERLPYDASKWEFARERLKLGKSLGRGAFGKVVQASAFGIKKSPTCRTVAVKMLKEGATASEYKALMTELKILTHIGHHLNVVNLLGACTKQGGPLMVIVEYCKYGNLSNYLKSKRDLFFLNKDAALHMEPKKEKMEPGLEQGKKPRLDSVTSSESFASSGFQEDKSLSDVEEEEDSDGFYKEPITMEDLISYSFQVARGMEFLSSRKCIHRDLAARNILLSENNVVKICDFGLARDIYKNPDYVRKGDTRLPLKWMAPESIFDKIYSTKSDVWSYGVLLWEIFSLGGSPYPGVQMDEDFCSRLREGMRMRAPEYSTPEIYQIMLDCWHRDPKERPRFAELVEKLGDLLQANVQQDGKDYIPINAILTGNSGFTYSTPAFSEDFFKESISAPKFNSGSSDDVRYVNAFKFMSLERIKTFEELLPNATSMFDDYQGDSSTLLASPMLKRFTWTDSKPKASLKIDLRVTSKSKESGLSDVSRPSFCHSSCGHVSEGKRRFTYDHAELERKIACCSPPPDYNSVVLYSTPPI

With `Cc1cnc(Nc2ccc(N3CCC(N(C)CCO)CC3)c(F)c2)nc1-c1cnn(C(C)C)c1`, the Activity in [1] is 40.9%; in data set [4] it was 58.55%; in data set [5], “Non-Toxic”; in data set [6], “Dose-dependent effect”; in data set [7] it was 0.93%; in data set [9], “Non-Toxic”. In addition, the Activity was 11.9% in data set [10]; 11.8% in [11]; 55.92% in [12]; 0.29% in data set [13]; 0.75% in data set [16]; 29.65% in data set [19]. For the same compound, the Activity came out at 10.26% in [20] and 0% in data set [23]. In data set [2], this compound came in with a CLH of 0.5 µL/min/mg. Also, the results for the half-life in [3] and in data set [21] were 12.8 h and 23.1 h, respectively. Also, the IC50 was 39 nM in [8]; 22 nM in data set [14]; 112 nM in [15]; 72 nM in data set [17]; 18 nM in data set [18]. This compound had an AUCt in data set [22] of 2552 ng·h/mL.
